Source: PubChem BioAssay AID2060484 (Molecular Pharmacology Branch, DTP, NCI, 2025)
Several values for one entry are separate records, joined by “and”; a condition that tells them apart may be missing. Identical values can stand only once.

Test system: SUM149PT spheroids with HUVEC/MSC, viability
Test: Anticancer human tumor SUM149PT cell line growth inhibition [GQUAD];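 also: spheroids exposed to drugs for seven days before readout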;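 as to viability, T/C: percent viability relative to DMSO vehicle control taken as 100%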
Conditions: for viability, T/C: stronger effect = lower value
Text: DNA G-quadruplex Stabilizer Agents in Combinations in Complex Spheroids
A high-throughput screen of multi-cell type tumor spheroids was designed to identify active combinations of DNA G-quadruplex stabilizer agents and targeted small molecules. Complex spheroids include a stromal component modeled by human endothelial cells (HUVEC) and fibroblasts modeled by human mesenchymal stem cells (MSCs). The concentration ranges selected for each drug and investigational agent were based upon clinically achievable concentrations if the clinical Cmax of the agent was known.
Compounds. The drugs and investigational agents: pidnarulex (CX-5461; NSC782164), APTO-253 (NSC789042), BRACO-19 (NSC847499), peposertib (NSC802822), ceralasertib (NSC780249), elimusertib (NSC800525), camonsertib (NSC841442), AZD-1390 (NSC803789), olaparib (NSC753686), talazoparib (NSC767125), ART-558 (NSC835418), sotorasib (NSC818433), MRTX-1133 (NSC836407), SN-38 (NSC673596), topotecan (NSC609699), etoposide (NSC141540), doxorubicin (NSC123127), gemcitabine (NSC613327), 5-fluorouracil (NSC19893), paclitaxel (NSC125973), vemurafenib (NSC761431), panobinostat (NSC761190), R-306465 (JNJ-16241199; NSC773264), adavosertib (NSC754352), TP-3654 (NSC805149), carboplatin (NSC241240), KSQ-4279 (NSC840948), and staurosporine (NSC755774) were obtained from the National Cancer Institute (NCI) Developmental Therapeutics Program Chemical Repository (34). The FDA-approved anticancer drug set is available from the NCI Developmental Therapeutics Program. […] The stock solutions were prepared in dimethyl sulfoxide (DMSO, Sigma-Aldrich, St. Louis, MO, cat. D2650) at 800-fold the tested concentration and stored at -70 degrees C prior to their use. All drugs and investigational agents were tested over a range starting from a high concentration at or near the clinical Cmax and decreasing in half-log increments. If the clinical Cmax for an agent had not been determined, the highest concentration tested was 10 microM.
2.3 Cell Culture. All cells were maintained in an incubator at 37 degrees C and 5% CO2 with 95% humidity. The PDC lines were cultured according to standard operating procedures established by the NCI PDMR. All PDCs were thawed and cultured in Matrigel-coated flasks prepared with a working solution of 1X Ham's F-12 nutrient mix, without supplementation (Invitrogen, cat. 11765054), 100 U/mL penicillin-streptomycin (Invitrogen, cat. 15140122), and 2.5% Matrigel (Corning Inc., cat. 354248) for the first three passages. The 857933-349-R-J2-PDC line was cultured in 6C/Colon 1B media, which includes advanced DMEM/F-12 (Thermo Fisher Scientific, cat. 12634028), 10 mM HEPES (Thermo Fisher Scientific, cat. 15630080), 1X GlutaMAX supplement (Thermo Fisher Scientific, cat. 35050061), 0.1 mg/mL primocin (InvivoGen, cat. ant-pm-2), 10% defined fetal bovine serum, heat inactivated (HyClone Laboratories Inc., cat. SH30070.03HI), 50% L-WRN conditioned media (ATCC, cat. CRL-3276), 1.25 mM N-Acetyl-L-cysteine (Sigma-Aldrich, cat. A9165), 10 mM nicotinamide (Sigma-Aldrich, cat. N0636), 1X B-27 supplement (Thermo Fisher Scientific, cat. 17504044), 1X N-2 supplement (Thermo Fisher Scientific, cat. 17502048), 10 microM Y-27632 dihydrochloride (Tocris Bioscience, cat. 1254), and 50 ng/mL human EGF recombinant protein (Thermo Fisher Scientific, cat. PHG0311). The 485176-168-R4-J1-PDC line was cultured in Panc media, which includes all 6C/Colon 1B media components plus 100 ng/mL human FGF-10 (Thermo Fisher Scientific, cat. 100-26), 500 nM SB-431542 (Selleckchem, cat. S1067), and gastrin (Tocris, cat. 3006).
[…]

Structure (SMILES): COc1ccc([C@@H](O)c2cc(-c3ncnc4cc(N5CCOCC5)ccc34)c(F)cc2Cl)nn1 + Cc1[nH]c2ccc(F)cc2c1-c1nc2c3cccnc3c3ncccc3c2[nH]1
- IC50 (curve of first compound, second compound 0.0316 µM): 761 nM
- IC50 (curve of first compound, second compound 0.1 µM): 1070 nM
- IC50 (curve of first compound, second compound 0.316 µM): 1130 nM
- IC50 (curve of first compound, second compound 1 µM): 1160 nM
- IC50 (curve of first compound, second compound 3.16 µM): 1050 nM
- IC50 (curve of first compound, second compound 10 µM): 874 nM
- viability, T/C (second compound 0.0316 µM, first compound 0.0316 µM): 95.7%
- viability, T/C (second compound 0.0316 µM, first compound 0.1 µM): 90.1%
- viability, T/C (second compound 0.0316 µM, first compound 0.316 µM): 65.6%
- viability, T/C (second compound 0.0316 µM, first compound 1 µM): 45.8%
- viability, T/C (second compound 0.0316 µM, first compound 3.16 µM): 29.9%
- viability, T/C (second compound 0.0316 µM, first compound 10 µM): 23.9%
- viability, T/C (second compound 0.1 µM, first compound 0.0316 µM): 92.9%
- viability, T/C (second compound 0.1 µM, first compound 0.1 µM): 92.9%
- viability, T/C (second compound 0.1 µM, first compound 0.316 µM): 79.3%
- viability, T/C (second compound 0.1 µM, first compound 1 µM): 52.3%
- viability, T/C (second compound 0.1 µM, first compound 3.16 µM): 29.4%
- viability, T/C (second compound 0.1 µM, first compound 10 µM): 27.6%
- viability, T/C (second compound 0.316 µM, first compound 0.0316 µM): 104%
- viability, T/C (second compound 0.316 µM, first compound 0.1 µM): 87.3%
- viability, T/C (second compound 0.316 µM, first compound 0.316 µM): 83%
- viability, T/C (second compound 0.316 µM, first compound 1 µM): 47.1%
- viability, T/C (second compound 0.316 µM, first compound 3.16 µM): 39.4%
- viability, T/C (second compound 0.316 µM, first compound 10 µM): 28.7%
- viability, T/C (second compound 1 µM, first compound 0.0316 µM): 102%
- viability, T/C (second compound 1 µM, first compound 0.1 µM): 102%
- viability, T/C (second compound 1 µM, first compound 0.316 µM): 82.9%
- viability, T/C (second compound 1 µM, first compound 1 µM): 52.4%
- viability, T/C (second compound 1 µM, first compound 3.16 µM): 32.5%
- viability, T/C (second compound 1 µM, first compound 10 µM): 23.9%
- viability, T/C (second compound 3.16 µM, first compound 0.0316 µM): 95.2%
- viability, T/C (second compound 3.16 µM, first compound 0.1 µM): 78.9%
- viability, T/C (second compound 3.16 µM, first compound 0.316 µM): 76.7%
- viability, T/C (second compound 3.16 µM, first compound 1 µM): 49.8%
- viability, T/C (second compound 3.16 µM, first compound 3.16 µM): 31.8%
- viability, T/C (second compound 3.16 µM, first compound 10 µM): 25.9%
- viability, T/C (second compound 10 µM, first compound 0.0316 µM): 89.8%
- viability, T/C (second compound 10 µM, first compound 0.1 µM): 82.6%
- viability, T/C (second compound 10 µM, first compound 0.316 µM): 71.7%
- viability, T/C (second compound 10 µM, first compound 1 µM): 46.3%
- viability, T/C (second compound 10 µM, first compound 3.16 µM): 30.9%
- viability, T/C (second compound 10 µM, first compound 10 µM): 23.3%

Structure (SMILES): Nc1ccn(C2OC(CO)C(O)C2(F)F)c(=O)n1 (configuration not stated)
- viability, T/C (compound 0.0316 µM): 74.9% and 85.4% and 74.1%
- viability, T/C (compound 0.1 µM): 37.6% and 48.4% and 42%
- viability, T/C (compound 0.316 µM): 24.5% and 38.1% and 20.7%
- viability, T/C (compound 1 µM): 23.8% and 31.2% and 18.5%
- viability, T/C (compound 3.16 µM): 16.5% (2×) and 24.5%
- viability, T/C (compound 10 µM): 15.4% and 24.8% and 17%
- IC50 (curve of compound): 69.3 nM and 108 nM and 75.1 nM

Structure (SMILES): Cc1cnc(CNC(=O)c2c(=O)c3ccc(N4CCCN(C)CC4)nc3n3c2sc2ccccc23)cn1
- viability, T/C (compound 0.0316 µM): 87.8% [middle of 12 runs]
- viability, T/C (compound 0.1 µM): 70% [middle of 12 runs]
- viability, T/C (compound 0.316 µM): 57.5% [middle of 12 runs]
- viability, T/C (compound 1 µM): 46.9% [middle of 12 runs]
- viability, T/C (compound 3.16 µM): 36.2% [middle of 12 runs]
- IC50 (compound alone, run of 03/18/2024): 725 nM [middle of 12 runs]

Structure (SMILES): CC(C)n1c(=O)n(C)c2cnc3cc(F)c(-c4ccc(OCCCN5CCCCC5)nc4)cc3c21
- viability, T/C (compound 0.0316 µM): 96.3% and 102% and 96.4%
- viability, T/C (compound 0.1 µM): 87.4% and 89.6% and 75.7%
- viability, T/C (compound 0.316 µM): 94.5% and 98.5% and 85.1%
- viability, T/C (compound 1 µM): 101% and 94.2% and 96.9%
- viability, T/C (compound 3.16 µM): 98.9% and 96.3% and 105%
- viability, T/C (compound 10 µM): 67.4% and 66.7% and 62.4%
- IC50 (curve of compound): > 10000 nM

Structure (SMILES): O=C(NO)c1cnc(N2CCN(S(=O)(=O)c3ccc4ccccc4c3)CC2)nc1
- viability, T/C (compound 0.0316 µM): 97.1% and 108% and 102%
- viability, T/C (compound 0.1 µM): 86.9% and 95.1% and 86.5%
- viability, T/C (compound 0.316 µM): 48.5% (2×) and 56.6%
- viability, T/C (compound 1 µM): 0.52% and 2.34% and 1.78%
- viability, T/C (compound 3.16 µM): 0.32% and 0.27% and 0.08%
- viability, T/C (compound 10 µM): 0.29% and 0.71%
- IC50 (curve of compound): 295 nM and 355 nM and 286 nM

Structure (SMILES): C#Cc1c(F)ccc2cc(O)cc(-c3ncc4c(N5CC6CCC(C5)N6)nc(OCC56CCCN5CC(F)C6)nc4c3F)c12 (configuration not stated)
- viability, T/C (compound 0.0316 µM): 92.8% and 104% and 99.7%
- viability, T/C (compound 0.1 µM): 74.4% and 90.1% and 92.7%
- viability, T/C (compound 0.316 µM): 58.9% and 82.1% and 77.1%
- viability, T/C (compound 1 µM): 40.6% and 62.5% and 67.6%
- viability, T/C (compound 3.16 µM): 37.8% and 70.5% and 53.1%
- viability, T/C (compound 10 µM): 30.2% and 42.8% and 41.5%

Structure (SMILES): Cc1[nH]c2ccccc2c1CCNCc1ccc(/C=C/C(=O)NO)cc1
- viability, T/C (compound 0.000999 µM): 104% and 108% and 97.7%
- viability, T/C (compound 0.00316 µM): 106% and 89.7% and 105%
- viability, T/C (compound 0.00999 µM): 90.3% and 107% and 101%
- viability, T/C (compound 0.0316 µM): 94.4% and 97.2% and 110%
- viability, T/C (compound 0.0999 µM): 92.1% and 91.4% and 106%
- viability, T/C (compound 0.316 µM): 41.8% and 37.1% and 34.2%
- IC50 (curve of compound): 264 nM and 241 nM and 244 nM
